Laboratory results: ChEMBL document CHEMBL6127053, “Discovery of orally bioavailable phosphonate prodrugs of potent ENPP1 inhibitors for cancer treatment” (Eur J Med Chem, 2024)
pIC50, pKi: −log10 of the molar value. Values after ≈ are worked out from the molar mass of the structure shown.

Tests used:
[1] = target: Cytochrome P450 2C9 (Homo sapiens, UniProt P11712); assay: Inhibition of CYP2C9 (unknown origin); assay type: ADME
[2] = target: Cytochrome P450 3A4 (Homo sapiens, UniProt P08684); assay: Inhibition of CYP3A4 (unknown origin); assay type: ADME
Cytochrome P450 3A4, sequence (P08684 whole entry): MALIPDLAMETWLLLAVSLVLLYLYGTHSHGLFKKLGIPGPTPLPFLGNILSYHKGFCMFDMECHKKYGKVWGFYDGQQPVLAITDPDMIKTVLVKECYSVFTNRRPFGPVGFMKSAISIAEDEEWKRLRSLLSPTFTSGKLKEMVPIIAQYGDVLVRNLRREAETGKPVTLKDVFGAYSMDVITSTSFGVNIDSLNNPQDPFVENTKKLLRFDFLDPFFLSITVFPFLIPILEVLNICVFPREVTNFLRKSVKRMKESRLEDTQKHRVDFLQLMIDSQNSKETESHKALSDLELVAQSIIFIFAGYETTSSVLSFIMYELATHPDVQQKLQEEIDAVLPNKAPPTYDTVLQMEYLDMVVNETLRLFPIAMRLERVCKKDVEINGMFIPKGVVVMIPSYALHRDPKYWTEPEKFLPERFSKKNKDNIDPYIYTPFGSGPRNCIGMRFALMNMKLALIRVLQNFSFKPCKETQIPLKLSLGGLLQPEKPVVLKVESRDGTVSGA

[3] = target: Cytochrome P450 2D6 (Homo sapiens, UniProt P10635); assay: Inhibition of CYP2D6 (unknown origin); assay type: ADME
Cytochrome P450 2D6, sequence (P10635 whole entry): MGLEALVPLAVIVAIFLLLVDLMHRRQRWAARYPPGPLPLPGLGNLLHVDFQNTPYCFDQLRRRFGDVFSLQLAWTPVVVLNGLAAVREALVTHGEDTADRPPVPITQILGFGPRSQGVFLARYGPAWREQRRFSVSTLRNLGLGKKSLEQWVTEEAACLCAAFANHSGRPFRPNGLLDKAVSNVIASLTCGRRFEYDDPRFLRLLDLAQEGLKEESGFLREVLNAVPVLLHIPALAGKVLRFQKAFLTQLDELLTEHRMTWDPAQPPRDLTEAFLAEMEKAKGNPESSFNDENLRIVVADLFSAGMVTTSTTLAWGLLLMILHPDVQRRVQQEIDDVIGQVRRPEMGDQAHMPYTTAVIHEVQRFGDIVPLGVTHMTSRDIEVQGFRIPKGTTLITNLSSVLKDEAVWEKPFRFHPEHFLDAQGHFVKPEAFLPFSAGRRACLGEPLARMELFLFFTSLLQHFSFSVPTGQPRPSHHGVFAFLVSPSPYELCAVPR

[4] = target: Cytochrome P450 2C19 (Homo sapiens, UniProt P33261); assay: Inhibition of CYP2C19 (unknown origin); assay type: ADME
Cytochrome P450 2C19, sequence (P33261 whole entry): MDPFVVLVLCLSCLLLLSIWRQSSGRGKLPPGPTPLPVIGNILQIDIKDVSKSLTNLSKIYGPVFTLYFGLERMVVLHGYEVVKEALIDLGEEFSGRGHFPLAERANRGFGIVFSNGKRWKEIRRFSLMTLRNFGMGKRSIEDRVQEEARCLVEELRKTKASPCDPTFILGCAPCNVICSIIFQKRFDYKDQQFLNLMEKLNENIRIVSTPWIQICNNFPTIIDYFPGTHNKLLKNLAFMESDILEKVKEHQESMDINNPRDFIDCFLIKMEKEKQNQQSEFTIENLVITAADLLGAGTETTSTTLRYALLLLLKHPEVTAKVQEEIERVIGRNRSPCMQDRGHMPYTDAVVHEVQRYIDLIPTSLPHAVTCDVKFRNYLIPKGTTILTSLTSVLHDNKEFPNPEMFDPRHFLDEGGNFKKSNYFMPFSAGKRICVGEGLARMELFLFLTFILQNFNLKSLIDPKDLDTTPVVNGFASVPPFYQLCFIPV

[5] = target: T1, Cytochrome P450 1A2 (Homo sapiens, UniProt P05177); assay: Inhibition of CYP1A2 (unknown origin); assay type: ADME
T1 sequence (P05177 whole entry): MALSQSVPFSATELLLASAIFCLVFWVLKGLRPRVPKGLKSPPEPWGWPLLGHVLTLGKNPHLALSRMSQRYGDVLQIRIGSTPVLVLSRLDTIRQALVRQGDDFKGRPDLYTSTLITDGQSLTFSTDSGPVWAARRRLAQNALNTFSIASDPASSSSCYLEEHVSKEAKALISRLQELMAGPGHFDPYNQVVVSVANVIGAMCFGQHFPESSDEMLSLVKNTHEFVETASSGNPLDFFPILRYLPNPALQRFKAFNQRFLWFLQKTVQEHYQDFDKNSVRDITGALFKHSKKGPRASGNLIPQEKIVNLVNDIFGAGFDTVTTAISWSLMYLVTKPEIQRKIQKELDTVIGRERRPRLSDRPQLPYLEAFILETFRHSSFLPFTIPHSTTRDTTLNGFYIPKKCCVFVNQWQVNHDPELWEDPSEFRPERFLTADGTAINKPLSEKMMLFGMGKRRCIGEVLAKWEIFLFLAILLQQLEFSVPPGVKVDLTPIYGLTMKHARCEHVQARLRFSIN

[6] = target: T2, Ectonucleotide pyrophosphatase/phosphodiesterase family member 1 (Homo sapiens, UniProt P22413); assay: Inhibition of ENPP1 (unknown origin) at pH 7.5
T2 sequence (P22413 whole entry): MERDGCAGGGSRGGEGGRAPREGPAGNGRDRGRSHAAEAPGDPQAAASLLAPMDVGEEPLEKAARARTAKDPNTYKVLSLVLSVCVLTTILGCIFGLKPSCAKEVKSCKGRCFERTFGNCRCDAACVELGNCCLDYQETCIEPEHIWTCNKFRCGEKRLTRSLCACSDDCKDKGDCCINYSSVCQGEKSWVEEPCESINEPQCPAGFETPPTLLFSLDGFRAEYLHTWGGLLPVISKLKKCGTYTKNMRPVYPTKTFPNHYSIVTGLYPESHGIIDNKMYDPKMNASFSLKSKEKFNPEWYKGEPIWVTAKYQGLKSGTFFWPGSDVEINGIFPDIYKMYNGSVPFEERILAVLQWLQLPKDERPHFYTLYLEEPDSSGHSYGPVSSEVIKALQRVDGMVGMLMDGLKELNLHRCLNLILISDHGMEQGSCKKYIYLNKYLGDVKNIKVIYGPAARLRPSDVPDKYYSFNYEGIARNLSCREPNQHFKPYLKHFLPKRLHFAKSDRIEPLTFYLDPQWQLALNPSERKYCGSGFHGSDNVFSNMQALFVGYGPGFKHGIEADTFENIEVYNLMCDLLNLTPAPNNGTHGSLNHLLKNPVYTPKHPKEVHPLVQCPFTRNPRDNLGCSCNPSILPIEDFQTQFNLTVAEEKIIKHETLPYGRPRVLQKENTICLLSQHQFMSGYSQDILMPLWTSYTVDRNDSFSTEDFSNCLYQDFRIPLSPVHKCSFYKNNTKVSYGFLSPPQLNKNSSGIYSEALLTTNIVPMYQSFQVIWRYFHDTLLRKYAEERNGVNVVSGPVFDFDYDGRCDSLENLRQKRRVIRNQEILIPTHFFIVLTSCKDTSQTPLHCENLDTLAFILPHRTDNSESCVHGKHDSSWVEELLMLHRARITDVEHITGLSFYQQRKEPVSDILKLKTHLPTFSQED

[7] = target: T3, Ectonucleotide pyrophosphatase/phosphodiesterase family member 1 (Mus musculus, UniProt P06802)
T3 sequence (P06802 whole entry): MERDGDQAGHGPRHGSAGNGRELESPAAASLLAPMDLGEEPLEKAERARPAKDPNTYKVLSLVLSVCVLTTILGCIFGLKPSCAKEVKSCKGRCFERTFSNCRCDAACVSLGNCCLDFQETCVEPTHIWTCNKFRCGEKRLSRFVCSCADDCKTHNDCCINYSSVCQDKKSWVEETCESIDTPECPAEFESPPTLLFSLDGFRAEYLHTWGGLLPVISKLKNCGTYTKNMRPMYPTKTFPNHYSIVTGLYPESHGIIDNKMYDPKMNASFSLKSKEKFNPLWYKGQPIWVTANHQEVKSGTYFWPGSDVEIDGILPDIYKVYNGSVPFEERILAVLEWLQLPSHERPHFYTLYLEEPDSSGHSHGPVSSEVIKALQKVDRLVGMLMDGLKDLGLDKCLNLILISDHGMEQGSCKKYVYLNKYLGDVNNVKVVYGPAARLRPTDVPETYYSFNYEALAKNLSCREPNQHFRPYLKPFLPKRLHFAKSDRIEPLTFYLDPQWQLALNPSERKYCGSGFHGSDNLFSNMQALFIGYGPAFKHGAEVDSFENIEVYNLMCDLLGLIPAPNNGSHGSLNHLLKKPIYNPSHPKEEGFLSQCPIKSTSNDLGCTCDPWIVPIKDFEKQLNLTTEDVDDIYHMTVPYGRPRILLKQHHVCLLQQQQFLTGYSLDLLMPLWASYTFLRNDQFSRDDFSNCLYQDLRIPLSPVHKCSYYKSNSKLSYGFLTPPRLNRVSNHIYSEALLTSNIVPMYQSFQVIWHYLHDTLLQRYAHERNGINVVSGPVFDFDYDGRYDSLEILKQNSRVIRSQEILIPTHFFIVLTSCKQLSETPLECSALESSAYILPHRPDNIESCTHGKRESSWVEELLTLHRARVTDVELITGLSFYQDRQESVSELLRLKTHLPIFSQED

[8] = target: T2, Ectonucleotide pyrophosphatase/phosphodiesterase family member 1; assay: Inhibition of ECD-His-tagged human recombinant ENPP1 using 2',3'-cGAMP as substrate preincubated with enzyme for 15 mins followed by substrate addition and incubated in R1 reaction buffer for 1 hr and treated in R2 reaction buffer for 1 hr measured at pH 7.5 by luminescence based analysis
[9] = target: Voltage-gated inwardly rectifying potassium channel KCNH2 (Homo sapiens, UniProt Q12809); assay: Inhibition of hERG; assay type: toxicity
Voltage-gated inwardly rectifying potassium channel KCNH2, sequence (Q12809 whole entry): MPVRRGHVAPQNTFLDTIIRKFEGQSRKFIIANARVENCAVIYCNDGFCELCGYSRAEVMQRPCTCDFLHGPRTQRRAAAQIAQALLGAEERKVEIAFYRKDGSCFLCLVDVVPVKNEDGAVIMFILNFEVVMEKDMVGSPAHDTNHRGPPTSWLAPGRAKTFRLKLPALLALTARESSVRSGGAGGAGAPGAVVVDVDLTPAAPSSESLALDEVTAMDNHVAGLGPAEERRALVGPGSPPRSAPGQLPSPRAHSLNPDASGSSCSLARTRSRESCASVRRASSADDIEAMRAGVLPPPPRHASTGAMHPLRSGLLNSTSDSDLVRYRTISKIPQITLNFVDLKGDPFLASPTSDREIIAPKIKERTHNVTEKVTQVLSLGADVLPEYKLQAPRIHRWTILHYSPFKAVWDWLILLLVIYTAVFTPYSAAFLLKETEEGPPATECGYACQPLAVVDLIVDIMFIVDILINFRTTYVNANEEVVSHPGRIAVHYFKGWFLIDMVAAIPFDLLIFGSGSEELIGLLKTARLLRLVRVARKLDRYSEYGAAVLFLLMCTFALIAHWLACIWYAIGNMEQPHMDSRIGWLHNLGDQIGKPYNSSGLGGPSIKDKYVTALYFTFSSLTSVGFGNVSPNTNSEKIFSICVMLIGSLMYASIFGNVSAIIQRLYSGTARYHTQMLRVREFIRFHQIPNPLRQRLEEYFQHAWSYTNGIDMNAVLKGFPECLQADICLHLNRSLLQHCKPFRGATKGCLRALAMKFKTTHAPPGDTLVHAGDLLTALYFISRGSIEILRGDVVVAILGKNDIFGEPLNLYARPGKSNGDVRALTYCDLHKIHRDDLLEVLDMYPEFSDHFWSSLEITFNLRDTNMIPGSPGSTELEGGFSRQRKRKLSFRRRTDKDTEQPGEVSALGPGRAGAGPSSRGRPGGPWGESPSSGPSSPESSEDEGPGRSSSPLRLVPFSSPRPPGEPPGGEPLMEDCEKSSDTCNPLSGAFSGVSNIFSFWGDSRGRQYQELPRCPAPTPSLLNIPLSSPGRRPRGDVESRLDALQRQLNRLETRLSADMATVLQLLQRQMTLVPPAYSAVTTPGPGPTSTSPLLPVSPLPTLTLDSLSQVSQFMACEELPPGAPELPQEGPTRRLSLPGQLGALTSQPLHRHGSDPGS

[10] = Prodrug conversion in C57BL/6 mouse implanted with mouse Panc02 cells assessed as time during which unbound plasma concentration of (4-((7-Methoxy-1,8-naphthyridin-4yl)oxy)benzyl)phosphonic acid metabolite exceeds IC90 for inhibition of ENPP1 in mouse EL4 cells at 200 mg/kg, po bid for 35 days; assay type: ADME, organism-based; settings: in vivo, 840 h, time 35 day
[11] = test system: Panc02; assay: Synergistic antitumor activity against mouse Panc02 cells implanted in C57BL/6 mouse assessed as inhibition of tumor growth by measuring combination ratio at 200 mg/kg, po bid for 35 days and irradiated with 5Gy radiation on days 1,8,15,22,29 and measured on day 35; assay type: functional; settings: time 35 day
[12] = Toxicity in C57BL/6 mouse implanted with mouse Panc02 cells assessed as effect on body weight at 200 mg/kg, po bid for 35 days; assay type: organism-based; settings: in vivo, 840 h, time 35 day
[13] = physchem; settings: aqueous, pH 7.4
Description: Aqueous solubility of the compound at pH 7.4

[14] = Prodrug conversion in rat assessed as oral bioavailability of (4-((7-Methoxy-1,8-naphthyridin-4yl)oxy)benzyl)phosphonic acid metabolite at 5 mg/kg measured for 24 hrs by LC-MS/MS analysis; assay type: ADME, organism-based; settings: in vivo
[15] = Prodrug conversion in mouse assessed as half-life of (4-((7-Methoxy-1,8-naphthyridin-4yl)oxy)benzyl)phosphonic acid metabolite at 5 mg/kg, po measured for 24 hrs by LC-MS/MS analysis; assay type: ADME, organism-based; settings: in vivo
[16] = test system: Panc02; assay: Antitumor activity against mouse Panc02 cells implanted in C57BL/6 mouse assessed as inhibition of tumor growth at 200 mg/kg, po bid for 35 days and measured on day 35; assay type: functional; settings: Panc02, 840 h, time 35 day, read-out: TGI
[17] = Prodrug conversion in dog assessed as oral bioavailability of (4-((7-Methoxy-1,8-naphthyridin-4yl)oxy)benzyl)phosphonic acid metabolite at 2 mg/kg measured for 24 hrs by LC-MS/MS analysis; assay type: ADME, organism-based, Canis lupus familiaris; settings: in vivo
[18] = test system: Panc02; assay: Synergistic antitumor activity against mouse Panc02 cells implanted in C57BL/6 mouse assessed as inhibition of tumor growth at 200 mg/kg, po bid for 35 days and irradiated with 5Gy radiation on days 1,8,15,22,29 and measured on day 35 (reference value: 26%); assay type: functional; settings: Panc02, light or radiation study, 840 h, time 35 day, read-out: TGI
[19] = Prodrug conversion in rat assessed as AUC (0 to t) of (4-((7-Methoxy-1,8-naphthyridin-4yl)oxy)benzyl)phosphonic acid metabolite at 5 mg/kg, po measured for 24 hrs by LC-MS/MS analysis; assay type: ADME, organism-based; settings: in vivo
[20] = Prodrug conversion in dog assessed as AUC(0 to t) of (4-((7-Methoxy-1,8-naphthyridin-4yl)oxy)benzyl)phosphonic acid metabolite at 2 mg/kg, po measured for 24 hrs by LC-MS/MS analysis; assay type: ADME, organism-based, Canis lupus familiaris; settings: in vivo
[21] = Prodrug conversion in mouse assessed as oral bioavailability of (4-((7-Methoxy-1,8-naphthyridin-4yl)oxy)benzyl)phosphonic acid metabolite at 5 mg/kg measured for 24 hrs by LC-MS/MS analysis; assay type: ADME, organism-based; settings: in vivo
[22] = Prodrug conversion in dog assessed as half-life of (4-((7-Methoxy-1,8-naphthyridin-4yl)oxy)benzyl)phosphonic acid metabolite at 2 mg/kg, po measured for 24 hrs by LC-MS/MS analysis; assay type: ADME, organism-based, Canis lupus familiaris; settings: in vivo
[23] = Prodrug conversion in mouse assessed as AUC(0 to t) of (4-((7-Methoxy-1,8-naphthyridin-4yl)oxy)benzyl)phosphonic acid metabolite at 5 mg/kg, po measured for 24 hrs by LC-MS/MS analysis; assay type: ADME, organism-based; settings: in vivo
[24] = Prodrug conversion in rat assessed as half-life of (4-((7-Methoxy-1,8-naphthyridin-4yl)oxy)benzyl)phosphonic acid metabolite at 5 mg/kg, po measured for 24 hrs by LC-MS/MS analysis; assay type: ADME, organism-based; settings: in vivo
[25] = target: T2, Ectonucleotide pyrophosphatase/phosphodiesterase family member 1; assay: Inhibition of ENPP1 (unknown origin) at pH 8.8
[26] = target: T2, Ectonucleotide pyrophosphatase/phosphodiesterase family member 1; assay: Inhibition of human recombinant ENPP1 at pH 8

Cytochrome P450 2C9, sequence (P11712 whole entry): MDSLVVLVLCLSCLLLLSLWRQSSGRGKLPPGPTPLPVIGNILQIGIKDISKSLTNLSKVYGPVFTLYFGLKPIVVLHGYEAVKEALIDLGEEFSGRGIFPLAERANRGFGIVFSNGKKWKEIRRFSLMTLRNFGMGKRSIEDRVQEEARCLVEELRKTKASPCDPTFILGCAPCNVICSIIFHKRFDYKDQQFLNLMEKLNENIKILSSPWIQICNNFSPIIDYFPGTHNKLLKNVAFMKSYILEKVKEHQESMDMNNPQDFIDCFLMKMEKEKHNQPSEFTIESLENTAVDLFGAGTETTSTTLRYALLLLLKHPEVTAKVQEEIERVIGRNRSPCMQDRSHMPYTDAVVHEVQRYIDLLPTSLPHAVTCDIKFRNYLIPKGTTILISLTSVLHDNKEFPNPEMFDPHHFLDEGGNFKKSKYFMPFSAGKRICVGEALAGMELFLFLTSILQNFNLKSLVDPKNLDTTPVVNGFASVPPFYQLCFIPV

pIC50 [1] | pIC50 [2] | pIC50 [3] | pIC50 [4] | pIC50 [5] | SMILES | also measured
< 4.30 | < 4.30 | < 4.30 | < 4.30 | < 4.30 | COc1ccc2c(Oc3ccc(CC(=O)NO)cc3)ccnc2n1 | 
< 4.30 | < 4.30 | < 4.30 | < 4.30 | < 4.30 | COc1ccc2c(Oc3ccc(CP(=O)(O)O)cc3)ccnc2n1 | pIC50 [9]: < 4.52
5.64 | 4.99 | 5.32 | 5.40 | 5.09 | COc1ccc2c(Oc3ccc(CC(=O)NO)cc3)ccnc2c1 | 

The next lines start with the compound.

SMILES | pIC50 [1] | pIC50 [2] | pIC50 [3] | pIC50 [4] | pIC50 [5] | also measured
COc1cccc2c(N3CCC(CCP(=O)(O)O)CC3)ncnc12 |  |  |  |  |  | pKi [6]: > 8.70; pIC50 [7]: 8.66; pIC50 [8]: 8.21
COc1ccc2c(Oc3ccc(C4(C(=O)NO)CCCC4)cc3)ccnc2n1 | 5.04 |  |  | 5.09 |  | 
COc1ccc2c(Oc3ccc(CP(=O)(OCOC(=O)C(C)(C)C)OCOC(=O)C(C)(C)C)cc3)ccnc2n1 | < 4.30 | < 4.30 | < 4.30 | < 4.30 | < 4.30 | pIC50 [9]: < 4.52; T>IC90 [10]: 18 h; Ratio [11]: 1.2; Activity [12]: Non-Toxic; solubility [13]: 20.6 µM (≈ 11.8 µg/mL); F [14]: 39.8%; t1/2 [15]: 4.2 h; inhibition in vivo at 200 mg/kg [16]: 11%; F [17]: 21.1%; inhibition in vivo at 200 mg/kg [18]: 51%; AUCt [19]: 5.984 µg·h/mL; AUCt [20]: 0.793 µg·h/mL; F [21]: 17%; t1/2 [22]: 1.8 h; AUCt [23]: 0.937 µg·h/mL; t1/2 [24]: 4.22 h
NC(=O)c1ccc2c(ncn2Cc2ccc(P(=O)(O)O)cc2)n1 |  |  |  |  |  | pKi [25]: > 8.00
COc1ccc2c(Oc3ccc(NS(N)(=O)=O)cc3)ccnc2c1 |  |  |  |  |  | pKi [26]: > 7.00
